The target in this test is T1, human OX2R (Homo sapiens, UniProt O43614).
T1 construct: expressed in transfected cells; host or cells: Chinese hamster ovary (CHO) cells, kept under G418 selection
T1 sequence (O43614 1-444): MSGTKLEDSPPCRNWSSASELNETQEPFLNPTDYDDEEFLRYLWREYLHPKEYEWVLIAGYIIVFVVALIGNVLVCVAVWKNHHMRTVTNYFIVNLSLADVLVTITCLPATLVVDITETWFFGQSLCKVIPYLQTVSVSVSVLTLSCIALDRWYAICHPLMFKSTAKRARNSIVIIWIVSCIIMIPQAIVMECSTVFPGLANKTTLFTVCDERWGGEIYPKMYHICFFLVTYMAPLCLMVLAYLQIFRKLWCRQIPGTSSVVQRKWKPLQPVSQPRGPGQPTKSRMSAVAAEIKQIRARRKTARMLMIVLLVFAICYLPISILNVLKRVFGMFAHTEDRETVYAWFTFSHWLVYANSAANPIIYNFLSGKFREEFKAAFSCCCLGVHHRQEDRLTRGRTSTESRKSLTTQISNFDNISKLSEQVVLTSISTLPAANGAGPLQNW
Put plainly: IPOne (IP-One) orexin receptor agonist assay in CHO cells expressing human OX2R. Type of test: cell-based. Conditions: for EC50: CHO cells expressing human OX2R, IP-One detection, 2 hours incubation, four parameter logistic fit, read-out: OX2R Potency, EC50; for % max agonist effect (Emax): human OX2R, percentage of sample raw value/mean max effect (reference compound at 1 uM with 100% activity).

As for `CS(=O)(=O)N[C@H]1CCN(c2cc(O)ncn2)[C@H]1CO[C@H]1CC[C@@H](c2ccccc2)CC1` [Example 150, N-((2R,3S)-1-(6-hydroxypyrimidin-4-yl)-2-((((CIS)-4-phenylcyclohexyl)oxy)methyl)pyrrolidin-3-yl)methanesulfonamide], the 50% effective concentration (EC50) is 397 nM and the “% max agonist effect (Emax)” value was found to be 99.4%.

On to `CS(=O)(=O)N[C@H]1CCN(c2cc(O)c(F)cn2)[C@H]1CO[C@H]1CC[C@@H](c2ccccc2)CC1` [Example 151, N-((2R,3S)-1-(5-fluoro-4-hydroxypyridin-2-yl)-2-((((CIS)-4-phenylcyclohexyl)oxy)methyl)pyrrolidin-3-yl)methanesulfonamide], for which the concentration giving a half-maximal response (EC50) was found to be 0.95 nM and the “% max agonist effect (Emax)” value came to 97.7%.

Consider `COc1cccc(N2CC[C@H](NS(C)(=O)=O)[C@@H]2CO[C@H]2CC[C@@H](c3ccccc3)CC2)n1` [Example 152, N-((2R,3S)-1-(6-methoxypyridin-2-yl)-2-((((CIS)-4-phenylcyclohexyl)oxy)methyl)pyrrolidin-3-yl)methanesulfonamide], for which the EC50 was found to be 346 nM and the “% max agonist effect (Emax)” value was 97.6%.

With `CS(=O)(=O)N[C@H]1CCN(c2cc(O)ncc2F)[C@H]1CO[C@H]1CC[C@@H](c2ccccc2)CC1` [Example 153, N-((2R,3S)-1-(5-fluoro-2-hydroxypyridin-4-yl)-2-((((CIS)-4-phenylcyclohexyl)oxy)methyl)pyrrolidin-3-yl)methanesulfonamide], the 50% effective concentration (EC50) was 169 nM and the “% max agonist effect (Emax)” value is 100.8%.

As for `CS(=O)(=O)N[C@H]1CCN(c2cc[nH]c(=O)c2)[C@H]1CO[C@H]1CC[C@@H](c2ccccc2)CC1` [Example 154, N-((2R,3S)-1-(2-oxo-1,2-dihydropyridin-4-yl)-2-((((CIS)-4-phenylcyclohexyl)oxy)methyl)pyrrolidin-3-yl)methanesulfonamide], the concentration giving a half-maximal response (EC50) came out at 52.3 nM and the “% max agonist effect (Emax)” value is 100.5%.

`CS(=O)(=O)N[C@H]1CCN(c2cccc(O)c2)[C@H]1CO[C@H]1CC[C@@H](c2ccccc2)CC1` [Example 155, N-((2R,3S)-1-(3-hydroxyphenyl)-2-((((CIS)-4-phenylcyclohexyl)oxy)methyl)pyrrolidin-3-yl)methanesulfonamide]: the concentration giving a half-maximal response (EC50) came to 1860 nM and the “% max agonist effect (Emax)” value was determined as 94.4%.

Turning to `C[C@@H]1C[C@H](NS(=O)(=O)N(C)C)[C@H](CO[C@H]2CC[C@@H](c3cccc(F)c3)CC2)N1c1nccc(O)c1F` [Example 156, N′-((2R,3S,5R)-1-(3-fluoro-4-hydroxypyridin-2-yl)-2-((((CIS)-4-(3-fluorophenyl)cyclohexyl)oxy)methyl)-5-methylpyrrolidin-3-yl)-N,N-dimethyl-sulfamide], the 50% effective concentration (EC50) amounted to 0.45 nM and the “% max agonist effect (Emax)” value was found to be 100.8%.

Consider `C[C@@H]1C[C@H](NS(=O)(=O)N(C)C)[C@H](CO[C@H]2CC[C@@H](c3cccc(F)c3)CC2)N1c1cc(O)ccn1` [Example 157, N′-((2R,3S,5R)-2-((((CIS)-4-(3-fluorophenyl)cyclohexyl)oxy)methyl)-1-(4-hydroxypyridin-2-yl)-5-methylpyrrolidin-3-yl)-N,N-dimethyl-sulfamide], for which the EC50 turned out to be 0.25 nM and the “% max agonist effect (Emax)” value is 100.2%.

For the compound `CS(=O)(=O)N[C@H]1CCCN(c2nccc(O)c2F)[C@H]1CO[C@H]1CC[C@@H](c2ccccc2)CC1` [Example 158, N-((2R,3S)-1-(3-fluoro-4-hydroxypyridin-2-yl)-2-((((CIS)-4-phenylcyclohexyl)oxy)methyl)piperidin-3-yl)methanesulfonamide], the EC50 is 32.5 nM and the “% max agonist effect (Emax)” value came to 99.7%.

Regarding `CS(=O)(=O)NC1CCCN(c2cccnc2)C1CO[C@H]1CC[C@@H](c2ccccc2)CC1` (stereo partly drawn) [Example 159, N-(2-((((CIS)-4-phenylcyclohexyl)oxy)methyl)-1-(pyridin-3-yl)piperidin-3-yl)methanesulfamide], the EC50 was 10.1 nM and the “% max agonist effect (Emax)” value worked out at 100.9%.

Take `CS(=O)(=O)N[C@H]1CCN(c2nccc(O)c2F)[C@H]1COC1CCC(c2ccccc2C(F)(F)F)CC1` (stereo partly drawn) [Example 160, N-((2R,3S)-1-(3-fluoro-4-hydroxypyridin-2-yl)-2-(((4-(2-(trifluoromethyl)phenyl)cyclohexyl)-oxy)methyl)pyrrolidin-3-yl)methanesulfonamide]: the EC50 is 6.1 nM and the “% max agonist effect (Emax)” value was 101.7%.

On to `CS(=O)(=O)N[C@H]1CCN(c2nccc(O)c2F)[C@H]1CO[C@H]1CC[C@@H](c2c(F)ccc(F)c2F)CC1` [Example 161, N-((2R,3S)-1-(3-fluoro-4-hydroxypyridin-2-yl)-2-((((CIS)-4-(2,3,6-trifluorophenyl)cyclohexyl)oxy)methyl)pyrrolidin-3-yl)methanesulfonamide], for which the EC50 was determined as 2 nM and the “% max agonist effect (Emax)” value stood at 100.3%.

On to `CC(C)[C@H]1CC[C@@H](OC[C@H]2[C@@H](NS(C)(=O)=O)CCN2c2nccc(O)c2F)CC1` [Example 162, N-((2R,3S)-1-(3-fluoro-4-hydroxypyridin-2-yl)-2-((((CIS)-4-isopropylcyclohexyl)oxy)methyl)pyrrolidin-3-yl) methanesulfonamide], for which the EC50 came to 24.3 nM and the “% max agonist effect (Emax)” value was found to be 98.5%.

As for `CS(=O)(=O)N[C@H]1CCN(c2ncc(F)c(O)c2F)[C@H]1CO[C@H]1CC[C@@H](c2cccc(F)c2)CC1` [Example 163, N-((2R,3S)-1-(3,5-difluoro-4-hydroxypyridin-2-yl)-2-((((CIS)-4-(3-fluorophenyl)cyclohexyl)oxy)methyl)pyrrolidin-3-yl)methanesulfonamide], the EC50 worked out at 1.4 nM and the “% max agonist effect (Emax)” value came to 101.8%.

Turning to `C[C@@H]1C[C@H](NS(C)(=O)=O)[C@H](CO[C@H]2CC[C@@H](c3cccc(F)c3)CC2)N1c1[nH]ccc(=O)c1F` [Example 164, N-((2R,3S,5R)-1-(3-fluoro-4-oxo-1,4-dihydropyridin-2-yl)-2-((((CIS)-4-(3-fluorophenyl)cyclohexyl)oxy)methyl)-5-methylpyrrolidin-3-yl)methanesulfonamide], the EC50 is 0.72 nM and the “% max agonist effect (Emax)” value is on record as 98.6%.

The values above are taken from patent publication US12312332B2 (Merck Sharp & Dohme LLC., priority 2019, dated 2025).
